pIC50: −log10 of the molar value.

The test system of the first test is MCF7 cells. Put plainly: Anti-proliferation (viability) of MCF7 cells (Table 7, FIG. 2B). The format is cell-based. Conditions: Homo sapiens, MCF7, MCF7 cells, 3-6 days, 10-point serial dilution; read-out: GI IC50 in MCF-7.
For the compound `CC(=O)c1c(C)c2cnc(Nc3ccc(N4CCN(CC(=O)NCC5CC(Nc6ccc(F)cc6C(=O)Nc6cc(C)n(C)n6)C5)CC4)cn3)nc2n(C2CCCC2)c1=O` (centres unmarked) [CPD-263, 2-((3-((2-(4-(6-((6-acetyl-8-cyclopentyl-5-methyl-7-oxo-7,8-dihydropyrido[2,3-d]pyrimidin-2-yl)amino)pyridin-3-yl)piperazin-1-yl)acetamido)methyl)cyclobutyl)amino)-N-(1,5-dimethyl-1H-pyrazol-3-yl)-5-fluorobenzamide], the negative-log IC50 (pIC50) – broadly, −log10 of the IC50, conventionally taken in molar units – was less than 7.00.
Take `CC(=O)c1c(C)c2cnc(Nc3ccc(N4CCN(C(C)CC(=O)NC5CC(Nc6nc(NC(C)C)ccc6C(=O)Nc6ccc(N(C)C)nn6)C5)CC4)cn3)nc2n(C2CCCC2)c1=O` (centres unmarked) [CPD-365, 2-((3-(3-(4-(6-((6-acetyl-8-cyclopentyl-5-methyl-7-oxo-7,8-dihydropyrido[2,3-d]pyrimidin-2-yl)amino)pyridin-3-yl)piperazin-1-yl)butanamido)cyclobutyl)amino)-N-(6-(dimethylamino)pyridazin-3-yl)-6-(isopropylamino)nicotinamide]: the negative logarithm of the IC50 (pIC50) is more than 7.30.
On the same count and under the same terms, as for `CC(=O)c1c(C)c2cnc(Nc3ccc(N4CCN(CC(=O)N5CCC(Nc6nc(NC(C)C)ccc6C(=O)Nc6cc(C)on6)CC5)CC4)cn3)nc2n(C2CCCC2)c1=O` [CPD-290, 2-((1-(2-(4-(6-((6-acetyl-8-cyclopentyl-5-methyl-7-oxo-7,8-dihydropyrido[2,3-d]pyrimidin-2-yl)amino)pyridin-3-yl)piperazin-1-yl)acetyl)piperidin-4-yl)amino)-6-(isopropylamino)-N-(5-methylisoxazol-3-yl)nicotinamide], the figure is less than 7.00.
For the compound `CNc1ccc(C(=O)Nc2ccc(N(C)C)nn2)c(NC2CCC(C(=O)N3CCC4(CCN(c5ccc(Nc6ncc7c(C)c(C(C)=O)c(=O)n(C8CCCC8)c7n6)nc5)CC4)C3)CC2)n1` (centres unmarked) [CPD-385, 2-((4-(8-(6-((6-acetyl-8-cyclopentyl-5-methyl-7-oxo-7,8-dihydropyrido[2,3-d]pyrimidin-2-yl)amino)pyridin-3-yl)-2,8-diazaspiro[4.5]decane-2-carbonyl)cyclohexyl)amino)-N-(6-(dimethylamino)pyridazin-3-yl)-6-(methylamino)nicotinamide], the pIC50 was 7.00 to 7.30.
The same measure, in the same setting: as for `CC(=O)c1c(C)c2cnc(Nc3ccc(N4CCN(CC(=O)NC5CC6(C5)CC(Nc5nc(N(C)C)ccc5C(=O)Nc5cn(C)c(C7CC7)n5)C6)CC4)cn3)nc2n(C2CCCC2)c1=O` (centres unmarked) [CPD-291, 2-((6-(2-(4-(6-((6-acetyl-8-cyclopentyl-5-methyl-7-oxo-7,8-dihydropyrido[2,3-d]pyrimidin-2-yl)amino)pyridin-3-yl)piperazin-1-yl)acetamido)spiro[3.3]heptan-2-yl)amino)-N-(2-cyclopropyl-1-methyl-1H-imidazol-4-yl)-6-(dimethylamino)nicotinamide], the figure is less than 7.00; as for `CC(=O)c1c(C)c2cnc(Nc3ccc(N4CCN(C(C)C(=O)NC5CC6(C5)CC(Nc5nc(NC(C)C)ccc5C(=O)Nc5ccc(N(C)C)nn5)C6)CC4)cn3)nc2n(C2CCCC2)c1=O` (centres unmarked) [CPD-406, 2-((6-(2-(4-(6-((6-acetyl-8-cyclopentyl-5-methyl-7-oxo-7,8-dihydropyrido[2,3-d]pyrimidin-2-yl)amino)pyridin-3-yl)piperazin-1-yl)propanamido)spiro[3.3]heptan-2-yl)amino)-N-(6-(dimethylamino)pyridazin-3-yl)-6-(isopropylamino)nicotinamide], more than 7.30; as for `[2H]C([2H])([2H])Nc1ccc(C(=O)Nc2ccc(N(C)C)nn2)c(NC2CC3(C2)CC(C(=O)N2CC4(CCN(c5ccc(Nc6ncc7c(C)c(C(C)=O)c(=O)n(C8CCCC8)c7n6)nc5)C4)C2)C3)n1` (centres unmarked) [CPD-378, 2-((6-(6-(6-((6-acetyl-8-cyclopentyl-5-methyl-7-oxo-7,8-dihydropyrido[2,3-d]pyrimidin-2-yl)amino)pyridin-3-yl)-2,6-diazaspiro[3.4]octane-2-carbonyl)spiro[3.3]heptan-2-yl)amino)-N-(6-(dimethylamino)pyridazin-3-yl)-6-((methyl-d3)amino)nicotinamide], less than 7.00.
In the case of `[2H]C([2H])([2H])Nc1ccc(C(=O)Nc2ccc(N(C)C)nn2)c(NC2CC3(CC(NC(=O)C(C)N4CCN(c5ccc(Nc6ncc7c(C)c(C(C)=O)c(=O)n(C8CCCC8)c7n6)nc5)CC4)C3)C2)n1` (centres unmarked) [CPD-438, 2-((6-(2-(4-(6-((6-acetyl-8-cyclopentyl-5-methyl-7-oxo-7,8-dihydropyrido[2,3-d]pyrimidin-2-yl)amino)pyridin-3-yl)piperazin-1-yl)propanamido)spiro[3.3]heptan-2-yl)amino)-N-(6-(dimethylamino)pyridazin-3-yl)-6-((methyl-d3)amino)nicotinamide], the negative-log IC50 (pIC50) was 7.00 to 7.30.
The same measure, in the same setting: the same measure for `CC(=O)c1c(C)c2cnc(Nc3ccc(N4CCN(CC(=O)NC5CC6(C5)CC(Oc5nc(NC(C)C)ccc5C(=O)Nc5cn(C)c(C7CC7)n5)C6)CC4)cn3)nc2n(C2CCCC2)c1=O` (centres unmarked) [CPD-317, 2-((6-(2-(4-(6-((6-acetyl-8-cyclopentyl-5-methyl-7-oxo-7,8-dihydropyrido[2,3-d]pyrimidin-2-yl)amino)pyridin-3-yl)piperazin-1-yl)acetamido)spiro[3.3]heptan-2-yl)oxy)-N-(2-cyclopropyl-1-methyl-1H-imidazol-4-yl)-6-(isopropylamino)nicotinamide]: less than 7.00; for `CC(=O)c1c(C)c2cnc(Nc3ccc(N4CCN(C(C)CC(=O)N5CCC(Nc6nc(NC(C)C)ccc6C(=O)Nc6ccc(N(C)C)nn6)C5)CC4)cn3)nc2n(C2CCCC2)c1=O` (centres unmarked) [CPD-370, 2-((1-(3-(4-(6-((6-acetyl-8-cyclopentyl-5-methyl-7-oxo-7,8-dihydropyrido[2,3-d]pyrimidin-2-yl)amino)pyridin-3-yl)piperazin-1-yl)butanoyl)pyrrolidin-3-yl)amino)-N-(6-(dimethylamino)pyridazin-3-yl)-6-(isopropylamino)nicotinamide]: more than 7.30; for `CNc1ccc(C(=O)Nc2ccc(N(C)C)nn2)c(NCC2COC3(C2)CN(C(=O)CN2CCN(c4ccc(Nc5ncc6c(C)c(C(C)=O)c(=O)n(C7CCCC7)c6n5)nc4)CC2)C3)n1` (centres unmarked) [CPD-354, 2-(((2-(2-(4-(6-((6-acetyl-8-cyclopentyl-5-methyl-7-oxo-7,8-dihydropyrido[2,3-d]pyrimidin-2-yl)amino)pyridin-3-yl)piperazin-1-yl)acetyl)-5-oxa-2-azaspiro[3.4]octan-7-yl)methyl)amino)-N-(6-(dimethylamino)pyridazin-3-yl)-6-(methylamino)nicotinamide]: less than 7.00.
Consider `[2H]C([2H])([2H])Nc1ccc(C(=O)Nc2ccc(N(C)C)nn2)c(NC2CC3(CC(NC(=O)C4CC45CCN(c4ccc(Nc6ncc7c(C)c(C(C)=O)c(=O)n(C8CCCC8)c7n6)nc4)CC5)C3)C2)n1` (centres unmarked) [CPD-439, 6-(6-((6-acetyl-8-cyclopentyl-5-methyl-7-oxo-7,8-dihydropyrido[2,3-d]pyrimidin-2-yl)amino)pyridin-3-yl)-N-(6-((3-((6-(dimethylamino)pyridazin-3-yl)carbamoyl)-6-((methyl-d3)amino)pyridin-2-yl)amino)spiro[3.3]heptan-2-yl)-6-azaspiro[2.5]octane-1-carboxamide], for which the pIC50 was more than 7.30.
Still for that read-out and setting: as for `CC(=O)c1c(C)c2cnc(Nc3ccc(N4CCC5(CC4)CC5C(=O)N4CCC(Nc5nc(NC(C)C)ccc5C(=O)Nc5cn(C)c(C6CC6)n5)CC4)cn3)nc2n(C2CCCC2)c1=O` (centres unmarked) [CPD-409, 2-((1-(6-(6-((6-acetyl-8-cyclopentyl-5-methyl-7-oxo-7,8-dihydropyrido[2,3-d]pyrimidin-2-yl)amino)pyridin-3-yl)-6-azaspiro[2.5]octane-1-carbonyl)piperidin-4-yl)amino)-N-(2-cyclopropyl-1-menthyl-1H-imidazol-4-yl)-6-(isopropylamino)nicotinamide], the figure is more than 7.30; as for `CC(=O)c1c(C)c2cnc(Nc3ccc(N4CCC(N5CC(C(=O)NC6CC7(C6)CC(Nc6nc(NC(C)C)ccc6C(=O)Nc6ccc(N(C)C)nn6)C7)C5)CC4)cn3)nc2n(C2CCCC2)c1=O` (centres unmarked) [CPD-393, 2-((6-(1-(1-(6-((6-acetyl-8-cyclopentyl-5-methyl-7-oxo-7,8-dihydropyrido[2,3-d]pyrimidin-2-yl)amino)pyridin-3-yl)piperidin-4-yl)azetidine-3-carboxamido)spiro[3.3]heptan-2-yl)amino)-N-(6-(dimethylamino)pyridazin-3-yl)-6-(isopropylamino)nicotinamide], 7.00 to 7.30; as for `CC(=O)c1c(C)c2cnc(Nc3ccc(N4CCN(CC(=O)NC(C)(C)C5CC(Nc6nc(NC(C)C)ccc6C(=O)Nc6cc(C)on6)C5)CC4)cn3)nc2n(C2CCCC2)c1=O` (centres unmarked) [CPD-410, 2-((3-(2-(2-(4-(6-((6-acetyl-8-cyclopentyl-5-methyl-7-oxo-7,8-dihydropyrido[2,3-d]pyrimidin-2-yl)amino)pyridin-3-yl)piperazin-1-yl)acetamido)propan-2-yl)cyclobutyl)amino)-6-(isopropylamino)-N-(5-methylisoxazol-3-yl)nicotinamide], less than 7.00.
Take `[2H]C([2H])([2H])Nc1ccc(C(=O)Nc2ccc(N(C)C)nn2)c(NC2CN(C(=O)CN3CCC4(CCN(c5ccc(Nc6ncc7c(C)c(C(C)=O)c(=O)n(C8CCCC8)c7n6)nc5)C4)C3)C2)n1` (centres unmarked) [CPD-442, 2-((1-(2-(7-(6-((6-acetyl-8-cyclopentyl-5-methyl-7-oxo-7,8-dihydropyrido[2,3-d]pyrimidin-2-yl)amino)pyridin-3-yl)-2,7-diazaspiro[4.4]nonan-2-yl)acetyl)azetidin-3-yl)amino)-N-(6-(dimethylamino)pyridazin-3-yl)-6-((methyl-d3)amino)nicotinamide]: the negative logarithm of the IC50 (pIC50) was less than 7.00.

Staying with this test, now noted: MCF7 cells, 3-6 days, 10-point serial dilution; read-out: GI IC50 in MCF-7.
Consider `CNc1ccc(C(=O)Nc2ccc(N(C)C)nn2)c(NC2CC(C(=O)N3CCC(N4CCN(c5ccc(Nc6ncc7c(C)c(C(C)=O)c(=O)n(C8CCCC8)c7n6)nc5)CC4)CC3)C2)n1` (centres unmarked) [CPD-334], for which the pIC50 is less than 7.00.

Values taken from patent US20260297081A1, “COMPOUNDS AND METHODS OF TREATING CANCERS” (Cullgen Inc., priority 2023, published 2026).
